Measured values: US20100010035A1, “Novel Dual Action Receptors Antagonists (Dara) at the Ati and Eta Receptors” (priority 2006, published 2010)

Assays:
human AT1 receptor = biological target: T1, human AT1 receptor (Homo sapiens, UniProt P30556); test: AT1 functional assay (FLIPR Ca efflux, Angiotensin-II at EC80); format: cell-based; details: CHO cells over-expressing full length human AT1 receptor; Angiotensin-II as agonist at EC80
T1 construct: CHO cell stably over-expressing the full length human AT1 receptor; expressed in transfected cells
T1 sequence (P30556 1-359): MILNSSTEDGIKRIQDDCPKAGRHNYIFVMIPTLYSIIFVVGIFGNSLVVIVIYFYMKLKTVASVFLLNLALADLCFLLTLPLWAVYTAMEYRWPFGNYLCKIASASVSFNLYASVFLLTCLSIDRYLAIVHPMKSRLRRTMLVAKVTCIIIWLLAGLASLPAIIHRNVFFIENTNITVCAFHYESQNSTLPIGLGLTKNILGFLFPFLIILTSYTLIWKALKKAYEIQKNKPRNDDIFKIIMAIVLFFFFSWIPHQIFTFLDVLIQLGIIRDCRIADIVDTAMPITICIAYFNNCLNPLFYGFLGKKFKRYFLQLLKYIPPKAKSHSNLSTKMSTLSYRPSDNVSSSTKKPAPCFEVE
Method: CHO cell stably over-expressing the full length human AT1 receptor was cultured in DMEM (Gibco) with 10% FCS (Hyclone) and selection maintained using 0.5 mg/ml G418 (Gibco). Cell at 70% confluence were trypsnised, resuspended in media and counted. 20,000 cells/well were plated into black polystyrene 384-well plates with transparent bottoms and allowed 16 hours to adhere. The cells were loaded with Flou-4 (TEFLABS, USA) dye in HBSS (Gibco) for 1 hour and then washed in HBSS and 0.6 μl of diluted compounds in DMSO added to the cells in 30 μd of HBSS in Multimek liquid handling system (Beckman, USA). The cells were then placed in the Fluorometric Imaging Plate Readers (FLIPR, Molecular Devices, USA) and 20 μl of Angiotensin-II peptide as agonist (at EC80) in HBSS was added in the instrument.
(§1) The Ca efflux was followed for 2 mins and the maximum height of the peak was measured at various compound concentrations and plotted according to the equation
(§2) and IC50 estimated wherein A is the bottom plateau of the curve i.e. the final minimum y value B is the top of the plateau of the curve i.e. the final maximum y value C is the x value at the middle of the curve. This represents the log EC50 value when A+B=100 D is the slope factor. x is the original known x values. y is the original known y values.

human ETA receptor = biological target: T2, human ETA receptor (Homo sapiens, UniProt P25101); test: ETA functional assay (FLIPR Ca efflux, Endothelin-1 at EC80); format: cell-based; details: CHO cells over-expressing full length human ETA receptor; Endothelin-1 as agonist at EC80
T2 construct: CHO cell stably over-expressing the full length human ETA receptor; expressed in transfected cells
T2 sequence (P25101 21-427): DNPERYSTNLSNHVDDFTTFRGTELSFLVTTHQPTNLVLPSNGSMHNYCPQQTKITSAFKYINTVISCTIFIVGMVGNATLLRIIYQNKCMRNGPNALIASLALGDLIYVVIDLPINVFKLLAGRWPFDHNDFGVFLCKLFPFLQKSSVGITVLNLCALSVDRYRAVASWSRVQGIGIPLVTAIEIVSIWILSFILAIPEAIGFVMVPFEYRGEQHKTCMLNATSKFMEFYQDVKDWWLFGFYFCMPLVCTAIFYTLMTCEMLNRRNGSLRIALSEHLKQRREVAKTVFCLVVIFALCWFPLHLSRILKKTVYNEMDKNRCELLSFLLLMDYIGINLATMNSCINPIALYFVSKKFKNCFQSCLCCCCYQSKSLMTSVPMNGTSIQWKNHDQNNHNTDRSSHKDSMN
Method: CHO cell stably over-expressing the full length human ETA receptor was cultured in DMEM (Gibco) with 10% FCS (Hyclone) and selection maintained using 0.5 mg/ml G418 (Gibco). Cell at 70% confluence were trypsnised, resuspended in media and counted. 20,000 cells/well were plated into black polystyrene 384-well plates with transparent bottoms and allowed 16 hours to adhere. The cells were loaded with Flou-4 (TEFLABS, USA) dye in BSS (Gibco) for 1 hour and then washed in HBSS and 0.6 μl of diluted compounds in DMSO added to the cells in 30 μl of HBSS in Multimek liquid handling system (Beckman, USA). The cells were then placed in the Fluorometric Imaging Plate Readers (FLIPR, Molecular Devices, USA) and 20 μl of Endothelin-1 peptide as agonist in HBSS (at EC80) was added in the instrument.
as §1, §2

CCc1cc2c(c(Sc3ccccc3)cc(=O)n2Cc2ccc(-c3ccsc3S(=O)(=O)Nc3noc(C)c3C)cc2)c(CC)n1 [Example 3, 3-[4-(5,7-diethyl-2-oxo-4-phenylsulphanyl-2H-[1,6]naphthyridin-1 ylmethyl)-phenyl]-thiophene-2-sulphonic acid(4,5-dimethyl-isoxazol-3-yl)-amide]
IC50 (human AT1 receptor): 125 nM | IC50 (human ETA receptor): 2920 nM

CCc1cc(OCc2ccc(-c3ccsc3S(=O)(=O)Nc3noc(C)c3C)cc2)c(C(=O)c2ccccc2)c(C)n1 [Example 4, 3-[4-(3-Benzoyl-6-ethyl-2-methyl-pyridin-4-yloxymethyl)-phenyl]-thiophene-2-sulphonic acid (4,5-dimethyl-isoxazol-3-yl)-amide]
IC50 (human AT1 receptor): 29 nM | IC50 (human ETA receptor): 6200 nM

CCOCc1cc(Cn2nc(C)c3c(C)nc(CC)cc32)ccc1-c1cc(C)sc1S(=O)(=O)Nc1noc(C)c1C [Example 6, 3-[2-Ethoxymethyl-4-(6-ethyl-3,4-dimethyl-pyrazolo[4,3-c]pyridine-1-ylmethyl)-phenyl]-5-methyl-thiophene-2-sulphonic acid(4,5-dimethyl-isoxazol-3-yl)-amide]
IC50 (human AT1 receptor): 22.9 nM | IC50 (human ETA receptor): 562 nM

CCc1cc2c(ccc(=O)n2Cc2ccc(-c3cc(C)sc3S(=O)(=O)Nc3noc(C)c3C)cc2)c(CC)n1 [Example 7, 3-[4-(5,7-diethyl-2-oxo-2H-[1,6]naphthyridin-1-yl-methyl)-phenyl]-5-methyl-thiophene-2-sulphonic acid-(4,5 dimethyl-isoxazol-3-yl)-amide]
IC50 (human AT1 receptor): 24.6 nM | IC50 (human ETA receptor): 814 nM

CCc1cc2c(c(Oc3ccccc3)cc(=O)n2Cc2ccc(-c3ccsc3S(=O)(=O)Nc3noc(C)c3C)cc2)c(CC)n1 [Example 8, 3-[4-(5,7-diethyl-2-oxo-4-phenoxy-2H-[1,6]naphthyridin-1-ylmethyl)-phenyl]-thiophene-2-sulphonic acid(4,5-dimethyl-isoxazol-3-yl)-amide]
IC50 (human AT1 receptor): 20.8 nM | IC50 (human ETA receptor): 2870 nM

CCOCc1cc(Cn2nc(Cn3nc(C)cc3C)c3c(C)nc(C)cc32)ccc1-c1cc(C)sc1S(=O)(=O)Nc1noc(C)c1C [Example 15, 3-{4-[3-(3,5-Dimethyl-pyrazol-1-ylmethyl)-4,6-dimethyl-pyrazolo[4,3-c]pyridin-1-ylmethyl]2-ethoxymethyl-phenyl}-5-methyl-thiophene-2-sulphonic acid (4,5-dimethyl-isoxazol-3-yl)-amide]
IC50 (human AT1 receptor): 11.4 nM | IC50 (human ETA receptor): 503 nM

Cc1cc2c(c(C)n1)c(-c1ccccc1)nn2Cc1ccc(-c2cc(C)sc2S(=O)(=O)Nc2noc(C)c2C)c(C)c1 [Example 18]
IC50 (human AT1 receptor): 7.98 nM | IC50 (human ETA receptor): 1430 nM

COCc1cc(Cn2nc(-c3cccs3)c3c(C)nc(C)cc32)ccc1-c1cc(C)sc1S(=O)(=O)Nc1noc(C)c1C [Example 21, 3-[4-(4,6-dimethyl-3-thiophen-2-yl-pyrazolo[4,3-c]pyridin-1-ylmethyl)-2-methoxymethyl-phenyl]-5-methyl-thiophene-2-sulfonic acid (4,5-dimethyl-isoxazol-3-yl)-amide]
IC50 (human AT1 receptor): 7.47 nM | IC50 (human ETA receptor): 464 nM

CCOCc1cc(Cn2nc(-c3cccs3)c3c(C)nc(CC)cc32)ccc1-c1cc(C)sc1S(=O)(=O)Nc1noc(C)c1C [Example 22, 3-[2-Ethoxymethyl-4-(6-ethyl-4-methyl-3-thiophen-2-yl-pyrazolo[4,3-c]pyridin-1-ylmethyl)-phenyl]-5-methyl-thiophene-2-sulfonic acid (4,5-dimethyl-isoxazol-3-yl)-amide]
IC50 (human AT1 receptor): 25.2 nM | IC50 (human ETA receptor): 454 nM

CCOCc1cc(Cn2nc(-c3ccc(OC)cc3)c3c(C)nc(CC)cc32)ccc1-c1cc(C)sc1S(=O)(=O)Nc1noc(C)c1C [Example 23, 3-{2-Ethoxymethyl-4-[6-ethyl-3-(4-methoxy-phenyl)-4-methyl-pyrazolo[4,3-c]pyridin-1-ylmethyl]-phenyl}-5-methyl-thiophene-2-sulfonic acid (4,5-dimethyl-isoxazol-3-yl)-amide]
IC50 (human AT1 receptor): 22.1 nM | IC50 (human ETA receptor): 248 nM

CCc1cc2c(c(C)n1)c(-c1ccc(OC)cc1)nn2Cc1ccc(-c2cc(C)sc2S(=O)(=O)Nc2noc(C)c2C)c(C)c1 [Example 24, 3-{4-[6-Ethyl-3-(4-methoxy-phenyl)-4-methyl-pyrazolo[4,3-c]pyridin-1-ylmethyl]-2-methyl-phenyl}-5-methyl-thiophene-2-sulfonic acid (4,5-dimethyl-isoxazol-3-yl)-amide]
IC50 (human AT1 receptor): 27.4 nM | IC50 (human ETA receptor): 1890 nM

CCOc1nc2cccc(C(=O)O)c2n1Cc1ccc(-c2cc(C)sc2S(=O)(=O)Nc2onc(C)c2C)cc1 [Example 26, 3-{4-[2-(3,4-dimethyl-isoxazol-5-ylsulfamoyl)-5-methyl-thiophen-3-yl]-benzyl}-2-ethoxy-3H-benzoimidazole-4-carboxylic acid]
IC50 (human AT1 receptor): 117 nM | IC50 (human ETA receptor): 18900 nM

CCOCc1cc(Cn2nc(-c3cccs3)c3c(C)nc(CC)cc32)ccc1-c1cc(C)sc1S(=O)(=O)Nc1onc(C)c1C [Example 27, 3-[2-Ethoxymethyl-4-(6-ethyl-4-methyl-3-thiophen-2-yl-pyrazolo[4,3-c]pyridin-1-ylmethyl)-phenyl]-5-methyl-thiophene-2-sulfonic acid (3,4-dimethyl-isoxazol-5-yl)-amide]
IC50 (human AT1 receptor): 15.6 nM | IC50 (human ETA receptor): 646 nM

Cc1cc2c(cc(-c3ccccc3)c(=O)n2Cc2ccc(-c3cc(C)sc3S(=O)(=O)Nc3noc(C)c3C)c(C)c2)c(C)n1 [Example 29, 3-[4-(5,7-dimethyl-2-oxo-3-phenyl-2H-[1,6]naphthyridin-1-ylmethyl)-2-methyl-phenyl]-5-methyl-thiophene-2-sulfonic acid (4,5-dimethyl-isoxazol-3-yl)-amide]
IC50 (human AT1 receptor): 15.9 nM | IC50 (human ETA receptor): 292 nM

CCc1cc2c(ccc(=O)n2Cc2ccc(-c3cc(C)sc3S(=O)(=O)Nc3onc(C)c3C)c(C)c2)c(CC)n1 [Example 30, 3-[4-(5,7-diethyl-2-oxo-2H-[1,6]naphthyridin-1-ylmethyl)-2-methyl-phenyl]-5-methyl-thiophene-2-sulfonic acid (3,4-dimethyl-isoxazol-5-yl)-amide]
IC50 (human AT1 receptor): 18.9 nM | IC50 (human ETA receptor): 3320 nM

CCc1cc2c(c(C)n1)c(-c1ccccc1)nn2Cc1ccc(-c2ccsc2S(=O)(=O)Nc2ncc(C)nc2OC)cc1 [Example 34]
IC50 (human AT1 receptor): 189 nM | IC50 (human ETA receptor): 7040 nM

CCc1cc2c(ccc(=O)n2Cc2ccc(-c3cc(C)sc3S(=O)(=O)Nc3noc(C)c3C)c(F)c2)c(CC)n1 [Example 35, 3-[4-(5,7-Diethyl-2-oxo-2H-[1,6]naphthyridin-1-ylmethyl)-2-fluoro-phenyl]-5-methyl-thiophene-2-sulfonic acid (4,5-dimethyl-isoxazol-3-yl)-amide]
IC50 (human AT1 receptor): 27.6 nM | IC50 (human ETA receptor): 2570 nM

Cc1cc2c(ccc(=O)n2Cc2ccc(-c3cc(C)sc3S(=O)(=O)Nc3noc(C)c3C)c(OCC(C)C)c2)c(C)n1 [Example 36, 3-[4-(5,7-Dimethyl-2-oxo-2H-[1,6]naphthyridin-1-ylmethyl)-2-isobutoxy-phenyl]-5-methyl-thiophene-2-sulfonic acid (4,5-dimethyl-isoxazol-3-yl)-amide]
IC50 (human AT1 receptor): 58.3 nM | IC50 (human ETA receptor): 758 nM

Cc1cc2c(c(C)n1)c(-c1ccc(Cl)cc1)nn2Cc1ccc(-c2cc(C)sc2S(=O)(=O)Nc2noc(C)c2C)c(C)c1 [Example 37, 3-{4-[3-(4-Chloro-phenyl)-4,6-dimethyl-pyrazolo[4,3-c]pyridin-1-ylmethyl]-2-methyl-phenyl}-5-methyl-thiophene-2-sulfonic acid (4,5-dimethyl-isoxazol-3-yl)-amide]
IC50 (human AT1 receptor): 153 nM | IC50 (human ETA receptor): 407 nM
